Among the test systems are ACHN; BT-549; CAKI-1; HL-60; HOP-92; Hs-578T; K562; LOX IMVI; MDA-MB-231; Malme-3M; NCI/ADR-RES; PC-3; RPMI-8226; SF-268; SF-539; SK-MEL-2; SK-MEL-5; SN12C; SNB-19; SW-620.
Common to all, as to experiment: NCI tumour cell line growth inhibition, 48 h

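Compound exposure: 48 hours, 5 concentrations, 96-well plates. Here, GI50 denotes the concentration required for 50% inhibition of growth.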 Calls of active or inactive are those of the source. No stated cut-off is given here; in the data, active = GI50 up to about 1.1 µM and inactive = higher. Where a SMILES comes first, the peptide text is derived from it. [ ]: non-standard residue; d: D form. The star is where a group is joined. Phe(4-NO2) = N[CH](Cc1ccc([N+](=O)[O-])cc1)C(=O)O; Boc = CC(C)(C)OC(=O)*; OBn = c1ccc(CO*)cc1

Turning to `N#CC(C#N)=NNc1ccc2cn[nH]c2c1`, the GI50 was 33.1 µM (inactive) in the assay with ACHN; > 100 µM (inactive) with BT-549; 29.6 µM (inactive) in the assay on CAKI-1; 18.6 µM (inactive) with HL-60; 37.1 µM (inactive) in the assay on HOP-92; 24.8 µM (inactive) in the assay with Hs-578T. Besides, the GI50 is 15.7 µM (inactive) with K562; 31.4 µM (inactive) in the assay with LOX IMVI; > 100 µM (inactive) in the assay on MDA-MB-231; 28.4 µM (inactive) in the assay with Malme-3M; > 100 µM (inactive) in the assay on NCI/ADR-RES; > 100 µM (inactive) in the assay on PC-3. Also, the GI50 with RPMI-8226 is 26.2 µM (inactive); with SF-268, 36.3 µM (inactive); with SF-539, 70.8 µM (inactive); with SK-MEL-2, > 100 µM (inactive); in the assay with SK-MEL-5, 74.5 µM (inactive); in the assay with SN12C, 40.6 µM (inactive). The GI50 in the assay with SNB-19 was > 100 µM (inactive); in the assay on SW-620, 41.1 µM (inactive).
With `CCOC(=O)c1oc2ccc([N+](=O)[O-])c3c2c1CCC3`, the GI50 with ACHN was 58.3 µM (inactive); in the assay on BT-549, 46.5 µM (inactive); in the assay with CAKI-1 it was 61.4 µM (inactive); in the assay with HL-60 it was > 93.8 µM (inactive); in the assay with HOP-92, 17.4 µM (inactive); with Hs-578T it was 29.2 µM (inactive). Further, the GI50 with K562 is > 69.7 µM (inactive); in the assay on LOX IMVI it was 66.5 µM (inactive); in the assay on MDA-MB-231, 36.5 µM (inactive); with Malme-3M, > 63.4 µM (inactive); in the assay on NCI/ADR-RES, 64.9 µM (inactive); with PC-3, > 100 µM (inactive). Besides, the GI50 is > 100 µM (inactive) in the assay on RPMI-8226; 27.2 µM (inactive) in the assay on SF-268; 19 µM (inactive) with SF-539; 47.1 µM (inactive) in the assay on SK-MEL-2; 69.7 µM (inactive) in the assay on SK-MEL-5; > 84.3 µM (inactive) in the assay on SN12C. For the same compound, the GI50 with SNB-19 is 34.7 µM (inactive); in the assay on SW-620 it was > 90.8 µM (inactive).
As to `O=C(Nc1sccc1S(=O)(=O)c1ccc(Cl)cc1)c1ccc(Cl)cc1Cl`, the GI50 was > 100 µM (inactive) in the assay on ACHN; > 100 µM (inactive) with BT-549; > 100 µM (inactive) in the assay on CAKI-1; > 100 µM (inactive) in the assay with HL-60; > 93.1 µM (inactive) in the assay with HOP-92; > 100 µM (inactive) with Hs-578T. Also, the GI50 in the assay on K562 is > 53.3 µM (inactive); in the assay on LOX IMVI it was > 74.6 µM (inactive); in the assay with MDA-MB-231, > 100 µM (inactive); in the assay on Malme-3M, > 100 µM (inactive); in the assay with NCI/ADR-RES it was > 100 µM (inactive); in the assay on PC-3, > 100 µM (inactive). The GI50 in the assay with RPMI-8226 is 10.7 µM (inactive); in the assay on SF-268, > 100 µM (inactive); with SF-539 it was > 100 µM (inactive); in the assay on SK-MEL-2, > 100 µM (inactive); in the assay on SK-MEL-5, 47 µM (inactive); in the assay with SN12C, > 100 µM (inactive). In addition, the GI50 in the assay on SNB-19 and in the assay with SW-620 was > 100 µM (inactive) each time.
With `O=C1SC(SCc2ccccc2)=NC12CC2c1ccccc1` (stereo not given), the GI50 was 17.9 µM (inactive) in the assay on ACHN; 20.2 µM (inactive) with BT-549; 20 µM (inactive) with CAKI-1; 3.56 µM (inactive) in the assay with HL-60; 17.1 µM (inactive) in the assay on HOP-92; 24.3 µM (inactive) with Hs-578T. In addition, the GI50 in the assay on K562 is 19.5 µM (inactive); in the assay on LOX IMVI it was 18.8 µM (inactive); in the assay with MDA-MB-231 it was 20.3 µM (inactive); with Malme-3M, 17.7 µM (inactive); in the assay with NCI/ADR-RES, 23.9 µM (inactive); with PC-3, 23.3 µM (inactive). The GI50 in the assay with RPMI-8226 is 16.7 µM (inactive); in the assay on SF-268, 27 µM (inactive); with SF-539, 20.7 µM (inactive); in the assay with SK-MEL-2 it was 18.7 µM (inactive); in the assay on SK-MEL-5, 17.8 µM (inactive); with SN12C it was 20 µM (inactive). The GI50 in the assay on SNB-19 was 26.7 µM (inactive); in the assay on SW-620, 22.4 µM (inactive).
As to `NC(=O)SCC(=O)Nc1ccc2cccc3c2c1CC3`, the GI50 in the assay with ACHN was 22.8 µM (inactive); in the assay on BT-549, 16.2 µM (inactive); with CAKI-1, 42.1 µM (inactive); in the assay on HL-60, 3.9 µM (inactive); in the assay with HOP-92, 0.596 µM (active); with Hs-578T, 47.6 µM (inactive). Moreover, the GI50 in the assay with K562 is 12.8 µM (inactive); with LOX IMVI, 6.75 µM (inactive); in the assay with MDA-MB-231, 6.76 µM (inactive); in the assay on Malme-3M it was > 100 µM (inactive); with NCI/ADR-RES, 42.6 µM (inactive); with PC-3, 4.4 µM (inactive). Besides, the GI50 is 20.9 µM (inactive) with RPMI-8226; 15.3 µM (inactive) in the assay on SF-268; 15.1 µM (inactive) in the assay with SF-539; 17.1 µM (inactive) in the assay on SK-MEL-2; 26.8 µM (inactive) in the assay with SK-MEL-5; 21.5 µM (inactive) in the assay on SN12C. For the same compound, the GI50 in the assay with SNB-19 is 99.3 µM (inactive); in the assay with SW-620, 12.2 µM (inactive).
For `COc1ccc(-c2nc3ccc(C)cc3o2)c(OC)c1`, the GI50 with ACHN is 33 µM (inactive); with BT-549, 23.7 µM (inactive); in the assay with CAKI-1, 29.8 µM (inactive); in the assay on HL-60, 20.4 µM (inactive); in the assay with HOP-92, 25.4 µM (inactive); in the assay with Hs-578T, 25.8 µM (inactive). Moreover, the GI50 in the assay on K562 was 22.1 µM (inactive); in the assay on LOX IMVI, 16.6 µM (inactive); with MDA-MB-231, 19.8 µM (inactive); in the assay with Malme-3M, 21.2 µM (inactive); in the assay on NCI/ADR-RES it was 29.4 µM (inactive); in the assay with PC-3 it was 24.3 µM (inactive). For the same compound, the GI50 with RPMI-8226 was 19.5 µM (inactive); in the assay on SF-268, 28.6 µM (inactive); in the assay with SF-539 it was 20 µM (inactive); in the assay on SK-MEL-2, 24.6 µM (inactive); in the assay on SK-MEL-5, 19.3 µM (inactive); in the assay on SN12C, 26.5 µM (inactive). Besides, the figures for the GI50 in the assay with SNB-19 and in the assay on SW-620 were 7.41 µM (inactive) and 29.3 µM (inactive), respectively.
For the compound `COC(=O)CCC(NC(=O)OC(C)(C)C)C(=O)NC(Cc1ccc([N+](=O)[O-])cc1)C(=O)NCC(=O)OCc1ccccc1` (stereo not given) (Boc-Glu(OMe)-[Phe(4-NO2)]-Gly-OBn; configuration not given here), the GI50 is > 100 µM (inactive) in the assay with ACHN; 20.4 µM (inactive) in the assay with BT-549; > 65.6 µM (inactive) with CAKI-1; > 74.1 µM (inactive) in the assay on HL-60; 42.4 µM (inactive) in the assay on HOP-92; 23 µM (inactive) in the assay on Hs-578T. The GI50 is > 100 µM (inactive) in the assay on K562; > 48.2 µM (inactive) in the assay with LOX IMVI; > 60 µM (inactive) with MDA-MB-231; > 100 µM (inactive) with Malme-3M; > 80.7 µM (inactive) in the assay on NCI/ADR-RES; > 100 µM (inactive) with PC-3. The GI50 in the assay with RPMI-8226 was > 100 µM (inactive); in the assay on SF-268 it was 37.2 µM (inactive); with SF-539, 28.4 µM (inactive); with SK-MEL-2, > 77.1 µM (inactive); with SK-MEL-5, > 100 µM (inactive); in the assay on SN12C, > 100 µM (inactive). For the same compound, the GI50 is > 55.7 µM (inactive) with SNB-19 and > 100 µM (inactive) in the assay with SW-620.
